Patent US4366159A (priority 1981, dated 1982)
Where a name gives a salt, the structure may show the parent alone. Read-outs that look alike come from different tables or passages of the source.

Assays:
[1] = anesthetic requirement (MAC) for cyclopropane, tail-clamp technique; type: in vivo, Sprague-Dawley rats
Protocol: (§1) The effect on anesthetic requirements and PaCO2 of combined doses of nalbuphine hydrochloride and morphine sulfate was evaluated in 18 Sprague-Dawley rats (200-350 gms). Anesthetic requirements for cyclopropane anesthetic of each rat was determined using a tail-clamp technique (Munson et al., The Effect of Acute Hypothyroidism and Hyperthyoidism on Cyclopropane Requirements (MAC) in Rats, Anesthesiology 1968; 29:1094-1098). After induction of anesthesia with cyclopropane, the femoral artery and vein were exposed and catheterized with PE50 tubing. Anesthetic requirement as measured by minimal alveolar concentration (MAC) was determined and thereafter nalbuphine hydrochloride was administered intravenously. Upon completion of control measurements, a bolus dose of 0.04 mg/kg of nalbuphine hydrochloride was followed with a constant infusion of 0.1 mg/kg/min. After 45 minutes of continuous infusion, MAC was redetermined and arterial blood sampling repeated. The rat then received either 2, 4 or 8 mg/kg subcutaneously of morphine sulfate and after 30 minutes MAC and arterial blood gas (ABG) values (PaO2, PaCO2, pH, HCO3) redetermined.
The effect of morphine sulfate alone on anesthetic requirement and respiration was evaluated in a separate group of five Sprague-Dawley rats. After baseline measurements of anesthetic requirement (MAC) and ABG values, 2 mg/kg of morphine sulfate was given subcutaneously and after 30 minutes, repeat measurements of anesthetic requirements and blood gases were carried out.
Statistical evaluation was carried out using analysis of variance comparing the groups of animals at different infusion rates of nalbuphine hydrochloride, and for the animals receiving the combined morphine sulfatenalbuphine hydrochloride doses.

[2] = Protocol: as §1
The effect of morphine sulfate alone on anesthetic requirement and respiration was evaluated in a separate group of five Sprague-Dawley rats. […]

[3] = from a previous study, cited from earlier work
[4] = mouse antiphenylquinone writhing test; settings: for % mice blocked: 0:1 (morphine SO4 only)
[5] = human, in vivo
Protocol: The nalbuphine was administered parenterally as each patient was coming out of the anesthesia. […] The respiratory effect of the nalbuphine was established by measurement of arterial PaCO2 using a blood gas analyzer well known in respiratory therapy. Normal PaCO2 is in the range of 35-42 mmHg. All arterial samples were obtained on an inspired oxygen concentration of 100%.

SMILES	MAC Reduction % (Mean ± SEM) ([1]; morphine SO4 2 mg/kg sc, 30 min) [%]	MAC Reduction % (Mean ± SEM) ([1]; morphine SO4 2 mg/kg sc, 30 min, listed as morphine) [%]	mean PaCO2 compared with comparable MAC reduction dose of nalbuphine ([2]; morphine 2 mg/kg)	MAC Reduction % (Mean ± SEM) ([3]; morphine SO4 2 mg/kg sc) [%]	MAC Reduction % (Mean ± SEM) ([3]; morphine SO4 4 mg/kg sc) [%]	MAC Reduction % (Mean ± SEM) ([3]; morphine SO4 8 mg/kg sc) [%]	% mice blocked ([4]; s.c., 10 min, 0.373 mg/kg) [%]	% mice blocked ([4]; s.c., 10 min, 0.745 mg/kg) [%]	% mice blocked ([4]; s.c., 10 min, 1.49 mg/kg) [%]	% mice blocked ([4]; s.c., 10 min, 2.98 mg/kg) [%]	ED50 at 10 min., Morphine SO4 ([4]; s.c., 10 min, morphine SO4 dose (alone or as component of combination), N = 30 mice/dose, 95% conf. limits printed on following lines) [mg/kg]	MAC Reduction % (Mean ± SEM) ([1]; rat, in vivo) [%]	PaCO2 (Mean ± SEM) ([2]; rat, in vivo) [mmHg]	duration of analgesia [5] [h]	emergence from anesthesia [5]	hypoxia and shunt [5]	pH after nalbuphine [5]	respiratory acidosis present before nalbuphine [5]	respiratory depression resulting from the narcotic [5]	ED50 at 10 min., Nalbuphine HCl ([4]; mouse, in vivo, sc) [mg/kg]
CN1CC[C@]23c4c5ccc(O)c4O[C@H]2[C@@H](O)C=C[C@H]3[C@H]1C5 [Morphine SO4]	22 ± 0.55	22	significantly higher	21.80 ± 1.48	32.63 ± 0.98	54.87 ± 1.94	17	37	83	100	0.832	–	–	–	–	–	–	–	–	–
Oc1ccc2c3c1O[C@H]1[C@@H](O)CC[C@@]4(O)[C@@H](C2)N(CC2CCC2)CC[C@]314 [Nalbuphine HCl, (-)-17-(cyclobutylmethyl)-4,5α-epoxymorphinan-3,6α, 14-triol]	–	–	–	–	–	–	–	–	–	–	–	21.62 ± 0.69	48.31 ± 1.07	8 to 12	smooth, rapid	No patient was hypoxic, nor was there any significant shunt present	7.35±0.6	completely reversed	reversed in all cases	2.17
